Results from EP0108627A2, “Cephalosporin derivatives and process for producing the same” (SUMITOMO CHEMICAL COMPANY, LIMITED, priority 1982, dated 1984).

Assay: Acute toxicity on mice
Settings: mouse, in vivo, po; ICR-slc male mice, 4 weeks old
Experimental: The compounds of Examples 4, 20 and 42 were tested for acute toxicity on mice^*.

Row | Compound | LD50 [mg/kg]
1 | CON=C(C(=O)NC1C(=O)N2C(C(=O)OCC(C)=Cc3ccccc3)=CCS[C@H]12)c1csc(N)n1 (stereo partly drawn) [Example 4, 2-Methyl-3-phenyl-2-propenyl 7-[2-(2-amino-4-thiazolyl)-2-methoxyiminoacetamido]-3-cephem-4-carboxylate] | > 5000
2 | CON=C(C(=O)NC1C(=O)N2C(C(=O)OCC=C(C)C)=CCS[C@H]12)c1csc(N)n1 (stereo partly drawn) [Example 20, 3-Methyl-2-butenyl 7-[2-(2-amino-4-thiazolyl)-2-methoxyiminoacetamido]-3-cephem-4-carboxylate] | > 5000
3 | CC=C(C)COC(=O)C1=CCS[C@@H]2C(NC(=O)C(=NOC)c3csc(N)n3)C(=O)N12 (stereo partly drawn) [Example 42, 2-Methyl-2-butenyl 7-[2-(2-amino-4-thiazolyl)-2-methoxyiminoacetamido]-3-cephem-4-carboxylate] | > 5000
